# Test results reported in patent US6316423A, “Method of treating ischemic, hypoxic and anoxic brain damage” (priority 1999, dated 2001).
# “Also recorded” adds a separate entry of the source.
# Experiments:
# Type in all cases: in vivo, gerbil
# [1] = Open field locomotor activity in nonischemic gerbils; details: 0.1 mg/kg (100 μg/kg)
# [2] = test system: gerbils exposed to 10 minutes of brain ischemia; assay: Mortality after 10 min ischemia, preischemic ADAC; details: 0.1 mg/kg preischemic, entire monitoring period (14 days); control 60%
# Method: Seven control animals out of 20 (35%) died during the initial 12 hour period following 10 minutes of ischemia. Three additional control gerbils died between day 1 and 3, and 2 additional animals died 5-8 hours following a water maze trial by day 14. Thus, the overall death rate of the control group was 60%. In contrast, in the ADAC-treated group only 2 animals out of 10 died (20%) during the entire monitoring period, one on day 3 and one on day 6.
# (§1) Prior to subjecting the gerbils to 10 minutes of ischemia, the gerbils were randomly divided into the control and the drug testing groups. […] During post-ischemic recovery, animals were monitored each day for signs of functional damage (e.g., pareses) that might affect their subsequent water maze performance. Postischemic mortality was also monitored every day.
# [3] = test system: gerbils subjected to 10 minutes of ischemia; assay: Open field locomotor activity 7 days after ischemia; details: preischemic ADAC, 10 minute period, control 235±3 cm, P<0.001
# Method: as §1
# Since locomotor hyperactivation may result in a spurious improvement of performance in the water maze (von Lubitz et al., 1993, supra), open field activity of all gerbils was assessed 7 days after the occlusion (i.e., one day prior to the water maze experiments). During locomotor testing, horizontal displacement of each gerbil was monitored in 2 minute epochs for 10 minutes using a Digiscan activity monitor (available from Omnitech Electronics, Colombus, Ohio).
# [4] = test system: gerbils subjected to 10 minutes of ischemia; assay: Postischemic Morris water maze test (spatial memory)
# Method: The Morris water maze (Morris et al., supra) is now considered the most direct means of assessing post-ischemic memory and learning of spatially oriented tasks (Corbett et al., Neuroreport, 3, 204 (1992)). This test is well known in the art and the specific parameters of this test as used herein are defined below. Female gerbils (Tumblebrook Farms, Mass.) weighing 70 g were used in the study. Prior to inclusion in the experiments, animals were tested for susceptibility to spontaneous seizures using the method described by Lee et al., Neuropharmacol., 5, 517 (1984). Seizure-prone gerbils were rejected.
# The details of the water maze are known in the art (von Lubitz et al., 1993 supra). Briefly, the system consists of a tank (1 m diameter) which is filled with opaque water to a depth of 30 cm. The tank contains a colorless target platform (15 cm diameter) submerged to a depth of 1.5 cm and placed in the center of the north-west quadrant. […]
# as §1
# [5] = test system: cortex, hippocampal CA1 sector, and striatum; assay: Nissl histology of neuronal loss, preischemic ADAC; details: two weeks after ischemia
# Method: The gerbils of Example 3 were subjected to examination procedures subsequent to the water maze tests described in Example 3. One day after the last postischemic water maze trial, all animals were heavily anesthetized with Nembutal and perfused through the aorta with buffered (pH 7.4) formaldehyde. Frozen sections of the brains were made as described previously (Lin et al., supra). The sections were stained using the method of Nissl, and the extent of the neuronal loss was determined in the cortex, hippocampal CA1 sector, and striatum following the published protocol of von Lubitz et al. (von Lubitz, 1992, supra; von Lubitz, 1994, supra).
# [6] = test system: neurons of hippocampal CA1 region; assay: Neuronal survival 14 days after 10 minute ischemia, postischemic ADAC; details: control 25±3%
# Method: At the end of the survival monitoring period (14 days), control and drug treated survivors were heavily anesthetized with Nembutal (60 mg/kg, intraperitoneally), and perfused with phosphate buffered (pH 7.4) 3.5% formaldehyde as described previously (Lin et al., Neurosci., 2, 289 (1990). The sections were stained with the method of Nissl, and the extent of the neuronal loss in the hippocampal region was investigated according to a standard procedure as disclosed in the art (von Lubitz et al., (1992) supra; 1994)supra.
# [7] = test system: gerbils exposed to 10 minutes of ischemia; assay: Survival rate following 10 minutes of ischemia, postischemic ADAC
# Method: In the three remaining treatment groups (i.e., 3, 6, and 12 hours) numerical improvement was apparent, but statistical significance of (P<0.05) was lost probably owing to the sample sizes. […] To prevent selection of overly robust animals into these groups, the data were not normalized to account for pre-treatment mortalities.
# [8] = test system: brain ischemia; assay: Comparison of effective neuroprotective concentrations with other A1 agonists; details: vs other A1 adenosine receptor agonists examined thus far
# [9] = 0.1 mg/kg ADAC 15 min post ischemia
# [10] = 0.1 mg/kg ADAC 30 min post ischemia
# [11] = 0.1 mg/kg ADAC 2 hour post ischemia
# [12] = 0.1 mg/kg ADAC 3 hour post ischemia
# [13] = 0.1 mg/kg ADAC 6 hour post ischemia
# [14] = 0.1 mg/kg ADAC 12 hour post ischemia
structure (smiles),measurement,setting,value
NCCNC(=O)Cc1ccc(NC(=O)Cc2ccc(Nc3ncnc4c3ncn4[C@@H]3O[C@H](CO)[C@@H](O)[C@H]3O)cc2)cc1 [ADAC],behavioral changes by open field locomotor activity testing,[1],does not induce behavioral changes; also recorded: did not induce any behavioral changes
same,death rate,[2],20%
same,open field activity (horizontal displacement),[3],135±6 cm
same,preference for target quadrant in postischemic probe trial,"[4]; FIG. 2, controls lost all preference",retained a high preference for the target quadrant
same,recovery of postischemic water maze performance,"[4]; preischemic ADAC, FIG. 1","regained water maze performance levels that mirrored the plateau level obtained in preischemic training almost immediately (trial 2, day 9)"
same,hippocampal CA1 neurons surviving,[5]; control 23%,81%
same,neuronal loss in cortex and striatum,[5]; control 83% (cortex) and 25% (striatum) surviving,complete elimination of neuronal loss
same,CA1 neuronal preservation,"[6]; ADAC at 0.5, 2 or 3 hours postischemia",~ 75%
same,CA1 neurons surviving,"[6]; ADAC at 15 minutes, 6 or 12 hours postischemia",approximately 60%
same,CA1 neurons still intact,[6]; ADAC at 1 hour postischemia,88±4%
same,Survival Rate 24 h postischemia,[7]; [9],100%
same,Survival Rate 14 days postischemia,[7]; [9],70%
same,Survival Rate 24 h postischemia,[7]; [10],100%
same,Survival Rate 14 days postischemia,[7]; [10],90%
same,Survival Rate 24 h postischemia,[7]; 0.1 mg/kg ADAC 1 hour post ischemia,80%
same,Survival Rate 24 h postischemia,[7]; [11],80%
same,Survival Rate 14 days postischemia,[7]; [11],80%
same,Survival Rate 24 h postischemia,[7]; [12],60%
same,Survival Rate 14 days postischemia,[7]; [12],50%
same,Survival Rate 24 h postischemia,[7]; [13],50%
same,Survival Rate 14 days postischemia,[7]; [13],50%
same,Survival Rate 24 h postischemia,[7]; [14],60%
same,Survival Rate 14 days postischemia,[7]; [14],50%
same,level of efficacy versus other A1 adenosine receptor agonists,[8],about an order of magnitude better
